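All cell lines were grown in 96-well plates and treated with compound for 48 hours. GI50 is the concentration that inhibits growth by half. TGI marks complete inhibition of growth.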
Assays:
Experiment in all cases: NCI tumour cell line growth inhibition, 48 h
ACHN renal = system: ACHN renal
HCC-2998 colon = system: HCC-2998 colon
K-562 leukemia = system: K-562 leukemia
KM12 colon = system: KM12 colon
LXFL 529 NSCLC = system: LXFL 529 NSCLC
M14 melanoma = system: M14 melanoma
NCI-H522 lung = system: NCI-H522 lung
SN12C renal = system: SN12C renal
SNB-78 CNS = system: SNB-78 CNS
TK-10 renal = system: TK-10 renal
MDA-MB-435 = system: MDA-MB-435

Row | Compound | TGI (ACHN renal) [µM] | TGI (HCC-2998 colon) [µM] | TGI (K-562 leukemia) [µM] | TGI (KM12 colon) [µM] | TGI (LXFL 529 NSCLC) [µM] | TGI (M14 melanoma) [µM] | TGI (NCI-H522 lung) [µM] | TGI (SN12C renal) [µM] | TGI (SNB-78 CNS) [µM] | TGI (TK-10 renal) [µM] | GI50 (ACHN renal) [µM] | GI50 (HCC-2998 colon) [µM] | GI50 (K-562 leukemia) [µM] | GI50 (KM12 colon) [µM] | GI50 (MDA-MB-435) [µM] | TGI (MDA-MB-435) [µM] | GI50 (NCI-H522 lung) [µM] | GI50 (SN12C renal) [µM] | GI50 (TK-10 renal) [µM] | GI50 (M14 melanoma) [µM]
1 | COc1cc2ccc1-c1cc(ccc1O)CC1c3cc4c(cc3CCN1C)Oc1c(OC)cc3c(c1O4)C(C2)N(C)CC3 (stereo not given) | 3.74 | 3.06 | 3.27 | 3.32 | 3.23 | 3.32 | 3.2 | 3.96 | 5.23 | 24.7 | – | – | – | – | – | – | – | – | – | –
2 | CC[C@H](Nc1nc(N)nc(N)c1Cl)c1nc2cccc(NCc3ccc(C(=O)NO)cc3)c2c(=O)n1-c1ccccc1 | 4.2 | 3.22 | > 100 | 4.62 | – | – | 3.6 | 4.78 | – | 6.63 | 1.98 | 1.62 | 1.78 | 2.08 | 1.7 | 3.4 | 1.29 | 1.78 | 2.02 | –
3 | Cc1ncc(CO)c(CN)c1O | > 100 | > 100 | > 100 | > 100 | – | > 100 | > 100 | > 100 | – | > 100 | – | – | – | – | – | > 100 | – | – | – | –
4 | COc1cnc2c(c1)C(=O)c1c-2n(CCCN2CCNCC2)c(=O)c2cc(Cl)ccc12 | 1.27 | – | – | 2.04 | – | – | – | – | – | – | 0.181 | – | – | 0.55 | 1.25 | 2.59 | – | – | – | –
5 | CC(C)CNc1nc(N)[nH]c(=O)c1NC=O | > 100 | > 100 | > 100 | > 100 | – | > 100 | > 100 | > 100 | – | > 100 | – | – | – | – | – | > 100 | – | – | – | –
6 | Cc1c2ccnc(-c3ccccc3)c2cc2c1[nH]c1ccccc12 | – | 13.2 | 5.38 | 26 | – | – | 27.7 | 7 | 30.4 | – | – | – | – | – | – | – | – | – | – | –
7 | Cn1cnc([N+](=O)[O-])c1SCC(=O)O | > 100 | > 100 | > 100 | > 100 | – | > 100 | > 100 | > 100 | – | > 100 | – | – | – | – | – | > 100 | – | – | – | –
8 | O=C(c1cc(Br)ccc1O)c1cc(Br)ccc1O | 29.9 | 33.2 | 33.5 | 30.8 | – | 29.1 | 33 | 32.6 | – | 33 | – | – | – | – | – | 29.3 | – | – | – | –
9 | NCS(=O)(=O)O | > 100 | > 100 | > 100 | > 100 | – | > 100 | > 100 | > 100 | – | > 100 | – | – | – | – | – | > 100 | – | – | – | –
10 | C[n+]1cccc(/C=C/c2ccc3cccc(O)c3n2)c1 | > 100 | > 100 | > 100 | > 100 | – | > 100 | 92.6 | > 100 | – | > 100 | – | – | – | – | – | > 100 | – | – | – | –
11 | C[C@H]1CCC/C=C/[C@@H]2C[C@H](O)C[C@H]2[C@H](O)[C@@H](S(=O)CCN)CC(=O)O1 (stereo not given in full) | 2.84 | 22.3 | > 100 | – | – | – | 0.926 | 0.472 | – | 4.19 | 0.121 | 0.252 | 0.132 | < 0.0139 | 0.0513 | > 92.8 | 0.0986 | 0.085 | 0.0851 | 0.0294
12 | COc1cc2c(cc1OC)C(Cl)C(c1ccc(Cl)cc1)=C2Cl (stereo not given) | 30.1 | – | 32.9 | – | 17.5 | 33.6 | 32.5 | 48.6 | 58.5 | 43.4 | – | – | – | – | – | – | – | – | – | –
13 | Cc1cc(=O)[nH]c(NN2C(Cl)C(=O)C2c2cccc([N+](=O)[O-])c2)n1 (stereo not given) | > 100 | 36.8 | 55.3 | 80.9 | 29.9 | 32.2 | – | 37.6 | > 100 | > 100 | – | – | – | – | – | – | – | – | – | –
14 | c1ccc2c[n+](CCCCCCCCCC[n+]3ccc4ccccc4c3)ccc2c1 | > 10 | > 10 | > 10 | > 10 | – | > 10 | > 10 | > 8.94 | – | > 10 | – | – | – | – | – | > 10 | – | – | – | –
15 | CC(C)(C)C1CCC2(CC1)CCN(CCCN1CCOCC1)CC2 | > 100 | 35.4 | 30.5 | > 100 | 21.5 | 27.8 | > 71.3 | > 100 | 91.9 | > 100 | – | – | – | – | – | > 100 | – | – | – | –
16 | CN(C)CCNC(=O)c1cccc2nc3c4ccccc4c4ccccc4c3nc12 | 12.4 | 11.5 | 3.57 | 3.06 | 10.1 | 4.97 | 23.4 | 3.64 | 37.6 | 9.86 | – | – | – | – | – | 3.42 | – | – | – | –
17 | O=C(O)c1ccccn1 | > 100 | – | > 100 | > 100 | – | > 100 | – | > 100 | – | > 100 | – | – | – | – | – | > 100 | – | – | – | –
18 | CN(C)c1ccc(C2CC(=O)C(C#N)=C(c3ccccc3)NN2C)cc1 (stereo not given) | > 100 | > 100 | – | > 100 | > 100 | 35.5 | 28.5 | > 100 | > 100 | > 100 | – | – | – | – | – | – | – | – | – | –
19 | N=C(N)c1ccc(-c2ccc(-c3ccc(Cl)cn3)s2)cc1 | 2.96 | – | – | – | – | 3.24 | – | – | – | – | 1.61 | – | – | – | 1.65 | 3.02 | – | – | – | 1.77
20 | CN(C)c1ccc2nc3c(C(=O)O)cc(=O)c(O)c-3oc2c1 | > 100 | – | 74.8 | > 100 | – | 49.8 | 31.9 | 64.6 | – | 47.5 | – | – | – | – | – | 54.9 | – | – | – | –
21 | CN(C)[C@@H]1C(=O)C(C(=O)NCNCCCC(=O)O)=C(O)[C@@]2(O)C(=O)C3=C(O)c4c(O)cccc4[C@@](C)(O)[C@H]3C[C@@H]12 | > 100 | > 100 | > 100 | > 100 | > 100 | > 100 | > 100 | > 100 | > 100 | > 100 | – | – | – | – | – | – | – | – | – | –
22 | O=C1c2ccccc2C(=O)c2c(NCCNC(=O)C3CCCN3)ccc(NCCNC(=O)C3CCCN3)c21 (stereo not given) | > 100 | > 100 | 52.2 | 49.8 | – | > 100 | 65.2 | > 100 | – | > 100 | – | – | – | – | – | > 100 | – | – | – | –

— PubChem BioAssay (NCI)
